Measured values: publication PMC6816013 (Journal of Medicinal Chemistry, 2019)
Where a name gives a salt, the structure may show the parent alone. Read-outs that look alike come from different tables or passages of the source.

Legend:
HSA = HSA (Homo sapiens, UniProt P02768); assay: HSA binding (plasma protein binding); format: in vitro ADME
Chain of HSA (P02768 25-609): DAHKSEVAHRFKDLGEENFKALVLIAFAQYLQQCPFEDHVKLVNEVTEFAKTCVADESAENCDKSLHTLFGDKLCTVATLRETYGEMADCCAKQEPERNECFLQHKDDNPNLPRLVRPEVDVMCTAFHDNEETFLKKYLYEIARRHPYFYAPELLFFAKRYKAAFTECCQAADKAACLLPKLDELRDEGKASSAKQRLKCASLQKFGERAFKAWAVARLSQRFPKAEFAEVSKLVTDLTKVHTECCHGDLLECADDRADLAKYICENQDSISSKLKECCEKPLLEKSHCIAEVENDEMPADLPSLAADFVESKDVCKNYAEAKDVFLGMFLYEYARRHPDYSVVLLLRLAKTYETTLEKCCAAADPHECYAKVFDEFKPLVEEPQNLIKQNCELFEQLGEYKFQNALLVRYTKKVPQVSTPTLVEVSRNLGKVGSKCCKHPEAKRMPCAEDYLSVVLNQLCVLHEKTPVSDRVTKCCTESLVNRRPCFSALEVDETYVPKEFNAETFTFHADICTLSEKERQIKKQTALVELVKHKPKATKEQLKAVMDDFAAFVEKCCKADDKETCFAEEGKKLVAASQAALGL

| SMILES | HSA binding (HSA) | AMP (PAMPA) | AMP (Tables 2 and 5) |
| --- | --- | --- | --- |
| CCOC(=O)N1CCC(c2nc(-c3ccc(F)cc3)c(-c3ccnc(Nc4ccc(N5CCN(C)CC5)cc4)n3)s2)CC1 [Compound 8] | 98% |  |  |
| Fc1ccc(-c2nc(N3CCOCC3)sc2-c2ccnc(Nc3ccc(N4CCNCC4)cc3)n2)cc1 [Compound 9, 4-[4-(4-Fluorophenyl)-2-(morpholin-4-yl)-1,3-thiazol-5-yl]-N-[4-(piperazin-1-yl)phenyl]pyrimidin-2-amine Trifluoroacetate] |  | 2.8 |  |
| Fc1ccc(-c2nc(N3CCCC3)sc2-c2ccnc(Nc3ccc(N4CCNCC4)cc3)n2)cc1 [Compound 10, 4-[4-(4-Fluorophenyl)-2-(pyrrolidin-1-yl)-1,3-thiazol-5-yl]-N-[4-(piperazin-1-yl)phenyl]pyrimidin-2-amine Trifluoroacetate] |  | 2.7 |  |
| CN1CCN(c2ccc(Nc3nccc(-c4sc(N)nc4-c4ccc(F)cc4)n3)cc2)CC1 [Compound 11, 4-[2-Amino-4-(4-fluorophenyl)-1,3-thiazol-5-yl]-N-[4-(4-methylpiperazin-1-yl)phenyl]pyrimidin-2-amine Trifluoroacetate] |  | 2.6 |  |
| Nc1nc(-c2ccc(F)cc2)c(-c2ccnc(Nc3ccc(N4CCNCC4)cc3)n2)s1 [Compound 12, 4-[2-Amino-4-(4-fluorophenyl)-1,3-thiazol-5-yl]-N-[4-(piperazin-1-yl)phenyl]pyrimidin-2-amine] | 98% |  |  |
| O=C(Nc1nc(-c2ccc(F)cc2)c(-c2ccnc(Nc3ccc(N4CCNCC4)cc3)n2)s1)C1CC1 [Compound 15, N-[4-(4-Fluorophenyl)-5-{2-[4-(piperazin-1-yl)anilino]pyrimidin-4-yl}-1,3-thiazol-2-yl]cyclopropanecarboxamide Trifluoroacetate] |  | 0.2 |  |
| CN1CCC(C(=O)Nc2nc(-c3ccc(F)cc3)c(-c3ccnc(Nc4ccc(N5CCNCC5)cc4)n3)s2)CC1 [Compound 16, N-[4-(4-Fluorophenyl)-5-{2-[4-(piperazin-1-yl)anilino]pyrimidin-4-yl}-1,3-thiazol-2-yl]-1-methylpiperidine-4-carboxamide Trifluoroacetate] |  | 0.1 |  |
| CCCS(=O)(=O)Nc1nc(-c2ccc(F)cc2)c(-c2ccnc(Nc3ccc(N4CCNCC4)cc3)n2)s1 [Compound 17, N-[4-(4-Fluorophenyl)-5-{2-[4-(piperazin-1-yl)anilino]pyrimidin-4-yl}-1,3-thiazol-2-yl]propane-1-sulfonamide Trifluoroacetate] |  | 0.3 |  |
| O=S(=O)(Nc1nc(-c2ccc(F)cc2)c(-c2ccnc(Nc3ccc(N4CCNCC4)cc3)n2)s1)C1CCNCC1 [Compound 18, N-[4-(4-Fluorophenyl)-5-{2-[4-(piperazin-1-yl)anilino]pyrimidin-4-yl}-1,3-thiazol-2-yl]piperidine-4-sulfonamide Trifluoroacetate] |  | 0.3 |  |
| Fc1ccc(-c2nc(C3CCNCC3)sc2-c2ccnc(Nc3nncs3)n2)cc1 [Compound 19, N-(4-(4-(4-Fluorophenyl)-2-(piperidin-4-yl)thiazol-5-yl)pyrimidin-2-yl)-1,3,4-thiadiazol-2-amine] | 92% |  | < 1e-07 cm/s |
| Cc1nnc(Nc2nccc(-c3sc(C4CCNCC4)nc3-c3ccc(F)cc3)n2)s1 [Compound 20, N-(4-(4-(4-Fluorophenyl)-2-(piperidin-4-yl)thiazol-5-yl)pyrimidin-2-yl)-5-methyl-1,3,4-thiadiazol-2-amine] | 92% |  | 8e-07 cm/s |
| Cc1csc(Nc2nccc(-c3sc(C4CCNCC4)nc3-c3ccc(F)cc3)n2)n1 [Compound 21, N-(4-(4-(4-Fluorophenyl)-2-(piperidin-4-yl)thiazol-5-yl)pyrimidin-2-yl)-4-methylthiazol-2-amine] | 96% |  | 1.5e-06 cm/s |
| Cc1cc(Nc2nccc(-c3sc(C4CCNCC4)nc3-c3ccc(F)cc3)n2)on1 [Compound 22, N-(4-(4-(4-Fluorophenyl)-2-(piperidin-4-yl)thiazol-5-yl)pyrimidin-2-yl)-3-methylisoxazol-5-amine] | 94% |  | 1.2e-06 cm/s |
| CCOc1nccc(Nc2nccc(-c3sc(C4CCNCC4)nc3-c3ccc(F)cc3)n2)n1 [Compound 30, N-(2-Ethoxypyrimidin-4-yl)-4-[4-(4-fluorophenyl)-2-(piperidin-4-yl)-1,3-thiazol-5-yl]pyrimidin-2-amine Trifluoroacetate] |  | 1.7 |  |
| Oc1cc(Nc2nccc(-c3sc(C4CCNCC4)nc3-c3ccc(F)cc3)n2)ccn1 [Compound 33, 4-({4-[4-(4-Fluorophenyl)-2-(piperidin-4-yl)-1,3-thiazol-5-yl]pyrimidin-2-yl}amino)pyridin-2-ol Trifluoroacetate] |  | 0.2 |  |
| COc1cc(Nc2nccc(-c3sc(C4CCNCC4)nc3-c3ccc(F)cc3)n2)cc(C)n1 [Compound 34, 4-[4-(4-Fluorophenyl)-2-(piperidin-4-yl)-1,3-thiazol-5-yl]-N-(2-methoxy-6-methylpyridin-4-yl)pyrimidin-2-amine Trifluoroacetate] |  | 1.9 |  |
| CCc1cc(Nc2nccc(-c3sc(C4CCNCC4)nc3-c3ccc(F)cc3)n2)nc(C)c1F [Compound 36, N-(4-Ethyl-5-fluoro-6-methylpyridin-2-yl)-4-(4-(4-fluorophenyl)-2-(piperidin-4-yl)thiazol-5-yl)pyrimidin-2-amine] | 97% |  |  |

| SMILES | HSA binding (HSA) | AMP (PAMPA) | AMP (Tables 2 and 5) |
| --- | --- | --- | --- |
| Cc1nc(Nc2nccc(-c3sc(C4CCNCC4)nc3-c3ccc(F)cc3)n2)cc(C2CCC2)c1F [Compound 38, N-(4-Cyclobutyl-5-fluoro-6-methylpyridin-2-yl)-4-(4-(4-fluorophenyl)-2-(piperidin-4-yl)thiazol-5-yl)pyrimidin-2-amine] | 98% |  |  |
| OCCNc1nccc(-c2sc(C3CCNCC3)nc2-c2ccc(F)cc2)n1 [Compound 42, 2-({4-[4-(4-Fluorophenyl)-2-(piperidin-4-yl)-1,3-thiazol-5-yl]pyrimidin-2-yl}amino)ethanol] | 79% |  |  |
| COCCNc1nccc(-c2sc(C3CCNCC3)nc2-c2ccc(F)cc2)n1 [Compound 43, 4-[4-(4-Fluorophenyl)-2-(piperidin-4-yl)-1,3-thiazol-5-yl]-N-(2-methoxyethyl)pyrimidin-2-amine] | 80% |  |  |
| Fc1ccc(-c2nc(C3CCNCC3)sc2-c2ccnc(NCC3CCCO3)n2)cc1 (centres unmarked) [Compound 44, 4-[4-(4-Fluorophenyl)-2-(piperidin-4-yl)-1,3-thiazol-5-yl]-N-(tetrahydrofuran-2-ylmethyl)pyrimidin-2-amine] | 86% |  |  |
| CN(C)CCNc1nccc(-c2sc(C3CCNCC3)nc2-c2ccc(F)cc2)n1 [Compound 45, N′-{4-[4-(4-Fluorophenyl)-2-(piperidin-4-yl)-1,3-thiazol-5-yl]pyrimidin-2-yl}-N,N-dimethylethane-1,2-diamine] | 83% |  |  |
| CN(C)C(CNc1nccc(-c2sc(C3CCNCC3)nc2-c2ccc(F)cc2)n1)C1CC1 (centres unmarked) [Compound 46, 1-Cyclopropyl-N′-{4-[4-(4-fluorophenyl)-2-(piperidin-4-yl)-1,3-thiazol-5-yl]pyrimidin-2-yl}-N,N-dimethylethane-1,2-diamine] | 91% |  |  |
| Fc1ccc(-c2nc(C3CCNCC3)sc2-c2ccnc(NCCN3CCCC3)n2)cc1 [Compound 47, 4-[4-(4-Fluorophenyl)-2-(piperidin-4-yl)-1,3-thiazol-5-yl]-N-[2-(pyrrolidin-1-yl)ethyl]pyrimidin-2-amine] | 86% |  |  |
| CN1CCN(CCNc2nccc(-c3sc(C4CCNCC4)nc3-c3ccc(F)cc3)n2)CC1 [Compound 48, 4-[4-(4-Fluorophenyl)-2-(piperidin-4-yl)-1,3-thiazol-5-yl]-N-[2-(4-methylpiperazin-1-yl)ethyl]pyrimidin-2-amine] | 90% |  |  |
| Fc1ccc(-c2nc(C3CCNCC3)sc2-c2ccnc(NCCN3CCOCC3)n2)cc1 [Compound 49, 4-(4-(4-Fluorophenyl)-2-(piperidin-4-yl)thiazol-5-yl)-N-(2-morpholinoethyl)pyrimidin-2-amine] | 83% |  |  |
| O[C@H]1CC[C@H](Nc2nccc(-c3sc(C4CCNCC4)nc3-c3ccc(F)cc3)n2)CC1 [Compound 51, trans-4-({4-[4-(4-Fluorophenyl)-2-(piperidin-4-yl)-1,3-thiazol-5-yl]pyrimidin-2-yl}amino)cyclohexanol] | 85% |  |  |
| CN1CCC(Nc2nccc(-c3sc(C4CCNCC4)nc3-c3ccc(F)cc3)n2)C1 (centres unmarked) [Compound 52, 4-[4-(4-Fluorophenyl)-2-(piperidin-4-yl)-1,3-thiazol-5-yl]-N-(1-methylpyrrolidin-3-yl)pyrimidin-2-amine] | 89% |  |  |
| Fc1ccc(-c2nc(C3CCNCC3)sc2-c2ccnc(N3CCCC3)n2)cc1 [Compound 53, 4-[4-(4-Fluorophenyl)-2-(piperidin-4-yl)-1,3-thiazol-5-yl]-2-(pyrrolidin-1-yl)pyrimidine] | 93% |  |  |
| OC1CCN(c2nccc(-c3sc(C4CCNCC4)nc3-c3ccc(F)cc3)n2)C1 (centres unmarked) [Compound 54, 1-{4-[4-(4-Fluorophenyl)-2-(piperidin-4-yl)-1,3-thiazol-5-yl]pyrimidin-2-yl}pyrrolidin-3-ol] | 85% |  |  |
| Fc1ccc(-c2nc(C3CCNCC3)sc2-c2ccnc(N3CCC(N4CCC4)CC3)n2)cc1 [Compound 55, 2-[4-(Azetidin-1-yl)piperidin-1-yl]-4-[4-(4-fluorophenyl)-2-(piperidin-4-yl)-1,3-thiazol-5-yl]pyrimidine] | 90% |  |  |
| Fc1ccc(-c2nc(C3CCNCC3)sc2-c2ccnc(N3CCC(N4CCOCC4)CC3)n2)cc1 [Compound 56, 4-(1-(4-(4-(4-Fluorophenyl)-2-(piperidin-4-yl)thiazol-5-yl)pyrimidin-2-yl)piperidin-4-yl)morpholine] | 90% |  |  |
| Fc1ccc(-c2nc(C3CCNCC3)sc2-c2ccnc(N3CCC(CN4CCOCC4)CC3)n2)cc1 [Compound 57, 4-((1-(4-(4-(4-Fluorophenyl)-2-(piperidin-4-yl)thiazol-5-yl)pyrimidin-2-yl)piperidin-4-yl)methyl)morpholine] | 93% |  |  |
| c1cc(Nc2nccc(-c3sc(C4CCNCC4)nc3C3CC3)n2)ncn1 [Compound 58, 4-(4-Cyclopropyl-2-(piperidin-4-yl)thiazol-5-yl)-N-(pyrimidin-4-yl)pyrimidin-2-amine Hydrochloride] |  | 1.8 |  |
